Test results: article PMC6100724, “Proteome‐wide analysis of phospho‐regulated PDZ domain interactions” (Molecular Systems Biology, 2018)

What was measured:
Test in all cases: Phosphomimetic ProP-PD selection with NGS
DLG1 PDZ1 = assay type: binding, human; conditions: mean of selections 1-3, bait DLG1 PDZ1; for Mean fraction #NGS counts wt peptide / total counts selection: wild type peptide; for Mean fraction #NGS counts mimetic peptide / total count selection: phosphomimetic peptide
Experimental: (§1) Phage selections were carried out for four rounds following a protocol by Huang and Sidhu (Huang & Sidhu, 2011) with minor modifications. Non‐specific binding phage was removed by pre‐selections against immobilized GST throughout the selection. The selections against the (pre‐)phosphorylated wild‐type library were performed in 50 mM HEPES (pH 7.4) and 150 mM NaCl (HBS) following the same procedure after pre‐phosphorylation of the library.
(§2) • Immobilize proteins (15 μg in 100 μl PBS) in a 96‐well MaxiSorp microtiter plate (NUNC) overnight at 4°C. • Start a 2YT culture of E. coli Omnimax supplemented with 100 μg/ml tetracycline to retain the F pilus epitope. • Block the wells with 200 μl 0.5% BSA in PBS for 2 h at 4°C. • Precipitate naïve phage library (10^11 cfu per selection) or amplified phage pool from the previous round of selection by adding one‐fifth the volume of PEG/NaCl. • Incubate on ice for 10 min, and pellet precipitated phage by centrifugation at 5,300 g for 15 min. Resuspend the phage pellet in 100 μl PBS per selection. • Add 100 μl of phage solution to the GST‐coated pre‐selection wells and incubate for 1 h. • Transfer the phage solution to the immobilized target proteins and allow it to bind for 2 h at 8°C. • Wash the plate four times with 200 μl cold wash buffer (PBS, 0.05% Tween‐20). • Elute bound phage by incubation with 100 μl log phase (0.6–0.8 OD600) E. coli Omnimax for 30 min at 37°C with shaking (200 RPM). • Add 10^12 cfu/ml M13K07 helper phage for hyperinfection of the bacteria and incubate as above for 45 min. • Transfer the bacterial culture to 10 ml 2YT supplemented with 50 μg/ml carbenicillin, 25 μg/ml kanamycin, and 300 μM IPTG and incubate overnight at 37°C while shaking. • Perform phage pool ELISA to monitor the progress of the selection as described previously (Huang & Sidhu, 2011).
(§3) The naïve library and the enriched phage pools of the third day of selection were amplified and barcoded by PCR and analyzed by NGS as described elsewhere (McLaughlin & Sidhu, 2013; Ivarsson et al, 2014). The reads were demultiplexed using the barcode sequences and filtered by discarding sequences with a Phred quality score under 30. Sequences were mapped to the original library using Bowtie (Langmead et al, 2009) with two mismatches between reads and library sequence. Nucleotide mutations leading to amino acid substitutions were subsequently removed. Cutoff values of NGS counts were assigned for each pool. PWMs were generated based on the remaining peptides (aligned on the C‐termini) using WebLogo (Crooks et al, 2004).
(§4) However, there was no significant correlation of the actual read counts (selection “strength”) and the initial representation in the library, reflecting the strong selection during phage display (wt+mimetic: P‐value: 0.49, ρ = −0.08, mimetic only: P‐value: 0.069, ρ = −0.2, wt only: P‐value: 0.12, ρ = 0.17). Consequently, the amount of reads for each binder after phage display is not a function of the amount of input reads in the naïve library and no modeling based on the input library frequencies to score the interactions is necessary. To allow for comparison between replicate selections, we used the fraction of NGS reads within a certain set, instead of the absolute number of NGS reads, as the absolute numbers differ between different NGS batches.

Scribble PDZ3 = assay type: binding, human; conditions: bait Scribble PDZ3
Experimental: as §1, §2, §3, §4

Scribble PDZ1 = biological target: T1, Scribble PDZ1 (Homo sapiens, UniProt Q14160); assay type: binding; conditions: bait Scribble PDZ1; mean of selections 1-3
T1 construct: human Scribble PDZ1 aa 719–829 in; made in house; host or cells: E. coli BL21 Gold (DE3)
T1 sequence (Q14160 719-829): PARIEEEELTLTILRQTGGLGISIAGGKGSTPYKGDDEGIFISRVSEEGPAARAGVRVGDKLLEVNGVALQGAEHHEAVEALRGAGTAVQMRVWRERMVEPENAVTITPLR
Experimental: as §1, §2, §3, §4

DLG1 PDZ2 = biological target: T2, DLG1 PDZ2 (Homo sapiens, UniProt Q12959); assay type: binding; conditions: mean of selections 1-3, bait DLG1 PDZ2
T2 construct: human DLG1 PDZ2 aa 311–407 in a modified pRSET vector 40; made in house; host or cells: E. coli BL21 Gold (DE3)
T2 sequence (Q12959 311-407): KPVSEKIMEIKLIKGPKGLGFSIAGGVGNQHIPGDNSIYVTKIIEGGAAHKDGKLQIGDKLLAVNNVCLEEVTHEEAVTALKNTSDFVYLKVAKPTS
Experimental: as §1, §2, §3, §4

[1] = mean of selections 1-3, wild type peptide

ASSPGGTVV
Mean fraction #NGS counts wt peptide / total counts selection (DLG1 PDZ1): 2.813e-5

ESREVTTYL
Mean fraction #NGS counts wt peptide / total counts selection (DLG1 PDZ1): 0
Mean fraction #NGS counts wt peptide / total counts selection (Scribble PDZ3; mean over selections 1-3): 5.004e-5
Mean fraction #NGS counts wt peptide / total counts selection (Scribble PDZ1): 2.8202e-5

ARVSKEEPL
Mean fraction #NGS counts mimetic peptide / total count selection (Scribble PDZ3; mean over selections 1-3): 0
Mean fraction #NGS counts mimetic peptide / total count selection (Scribble PDZ1): 1.46e-5
Mean fraction #NGS counts mimetic peptide / total count selection (DLG1 PDZ2): 0

GSLALLTKL
Mean fraction #NGS counts wt peptide / total counts selection (DLG1 PDZ1): 0
Mean fraction #NGS counts wt peptide / total counts selection (Scribble PDZ1): 0

ESGSQHTNV
Mean fraction #NGS counts mimetic peptide / total count selection (DLG1 PDZ1): 0

TRLSQHTDV
Mean fraction #NGS counts wt peptide / total counts selection (DLG1 PDZ1): 0.0004744
Mean fraction #NGS counts wt peptide / total counts selection (DLG1 PDZ2): 0.0007437

TRLEQHTDV
Mean fraction #NGS counts mimetic peptide / total count selection (DLG1 PDZ1): 8.513e-6
Mean fraction #NGS counts mimetic peptide / total count selection (DLG1 PDZ2): 6.6203e-5

EEREVTTYL
Mean fraction #NGS counts mimetic peptide / total count selection (DLG1 PDZ1): 3.309e-5
Mean fraction #NGS counts mimetic peptide / total count selection (Scribble PDZ3; mean over selections 1-3): 0.000214
Mean fraction #NGS counts mimetic peptide / total count selection (Scribble PDZ1): 0.0003719

KLESIESDV
Mean fraction #NGS counts mimetic peptide / total count selection (DLG1 PDZ1): 0

EARLWETSI
Mean fraction #NGS counts mimetic peptide / total count selection (DLG1 PDZ1): 3.0718e-6
Mean fraction #NGS counts mimetic peptide / total count selection (Scribble PDZ3; mean over selections 1-3): 0.01196
Mean fraction #NGS counts mimetic peptide / total count selection (Scribble PDZ1): 0.0002246

MRLQSETEV
Mean fraction #NGS counts mimetic peptide / total count selection (DLG1 PDZ1): 3.405e-5
Mean fraction #NGS counts mimetic peptide / total count selection (DLG1 PDZ2): 0.0002982

KYDKELEPV
Mean fraction #NGS counts mimetic peptide / total count selection (DLG1 PDZ1): 0.003147

KYDKELTPV
Mean fraction #NGS counts wt peptide / total counts selection (DLG1 PDZ1): 1.185e-6

EGSYLVTSV
Mean fraction #NGS counts mimetic peptide / total count selection (Scribble PDZ1): 1.46e-5
Mean fraction #NGS counts mimetic peptide / total count selection (DLG1 PDZ2; phosphomimetic peptide): 0.0002179

ASEPGGTVV
Mean fraction #NGS counts mimetic peptide / total count selection (DLG1 PDZ1): 0

SSGHTSTTL
Mean fraction #NGS counts wt peptide / total counts selection (DLG1 PDZ1): 0

PLHSLETSL
Mean fraction #NGS counts wt peptide / total counts selection (Scribble PDZ3; [1]): 0.0002079
Mean fraction #NGS counts wt peptide / total counts selection (Scribble PDZ3; mean over selections 1-3): 0.0002261
Mean fraction #NGS counts wt peptide / total counts selection (Scribble PDZ1): 0.0001571

SPTVHVTEL
Mean fraction #NGS counts wt peptide / total counts selection (Scribble PDZ3; mean over selections 1-3): 5.538e-5
Mean fraction #NGS counts wt peptide / total counts selection (Scribble PDZ1): 0.0001068

PIHELETSL
Mean fraction #NGS counts mimetic peptide / total count selection (Scribble PDZ3; mean over selections 1-3): 0
Mean fraction #NGS counts mimetic peptide / total count selection (Scribble PDZ1): 0

RREEYSTTV
Mean fraction #NGS counts mimetic peptide / total count selection (DLG1 PDZ1): 1.94e-5
Mean fraction #NGS counts mimetic peptide / total count selection (DLG1 PDZ2): 1.723e-5

KPERISTVV
Mean fraction #NGS counts mimetic peptide / total count selection (DLG1 PDZ1): 0.0005714
Mean fraction #NGS counts mimetic peptide / total count selection (DLG1 PDZ2; phosphomimetic peptide): 0.001492

GELALLTKL
Mean fraction #NGS counts mimetic peptide / total count selection (DLG1 PDZ1): 1.514e-5
Mean fraction #NGS counts mimetic peptide / total count selection (Scribble PDZ1): 0.0001134

HEKVFESAL
Mean fraction #NGS counts mimetic peptide / total count selection (Scribble PDZ3; mean over selections 1-3): 0.07851
Mean fraction #NGS counts mimetic peptide / total count selection (Scribble PDZ1): 0.0004614

SARLWETSI
Mean fraction #NGS counts wt peptide / total counts selection (DLG1 PDZ1): 5.924e-6
Mean fraction #NGS counts wt peptide / total counts selection (Scribble PDZ3; mean over selections 1-3): 0.08665
Mean fraction #NGS counts wt peptide / total counts selection (Scribble PDZ1): 0.005032

SSGSQHTNV
Mean fraction #NGS counts wt peptide / total counts selection (DLG1 PDZ1): 5.9593e-5
Mean fraction #NGS counts wt peptide / total counts selection (DLG1 PDZ2): 0.001066

HEKVFTSAL
Mean fraction #NGS counts wt peptide / total counts selection (Scribble PDZ3; mean over selections 1-3): 0.0001136
Mean fraction #NGS counts wt peptide / total counts selection (Scribble PDZ1): 0

RRESYSTTV
Mean fraction #NGS counts wt peptide / total counts selection (DLG1 PDZ1): 0.005493
Mean fraction #NGS counts wt peptide / total counts selection (DLG1 PDZ2): 0.0006987

RIESLESEV
Mean fraction #NGS counts mimetic peptide / total count selection (DLG1 PDZ1): 1.703e-5
Mean fraction #NGS counts mimetic peptide / total count selection (DLG1 PDZ2; phosphomimetic peptide): 0.000103

MRLQSETSV
Mean fraction #NGS counts wt peptide / total counts selection (DLG1 PDZ1): 1.185e-6
Mean fraction #NGS counts wt peptide / total counts selection (DLG1 PDZ2): 5.408e-5

SEGHTSTTL
Mean fraction #NGS counts mimetic peptide / total count selection (DLG1 PDZ1): 5.924e-6

MKRLTETRL
Mean fraction #NGS counts mimetic peptide / total count selection (Scribble PDZ3; mean over selections 1-3): 0.001041
Mean fraction #NGS counts mimetic peptide / total count selection (Scribble PDZ1): 0.01768

RISSLESEV
Mean fraction #NGS counts wt peptide / total counts selection (DLG1 PDZ1): 0.0001168
Mean fraction #NGS counts wt peptide / total counts selection (DLG1 PDZ2; wild type peptide): 0.00571

PLHSLEESL
Mean fraction #NGS counts mimetic peptide / total count selection (Scribble PDZ3; mean over selections 1-3): 0
Mean fraction #NGS counts mimetic peptide / total count selection (Scribble PDZ1): 0

ERLRVETDV
Mean fraction #NGS counts wt peptide / total counts selection (DLG1 PDZ1): 0.0001761
Mean fraction #NGS counts wt peptide / total counts selection (Scribble PDZ3; mean over selections 1-3): 0.0002834
Mean fraction #NGS counts wt peptide / total counts selection (DLG1 PDZ2): 0.00089

ERLRVEEDV
Mean fraction #NGS counts mimetic peptide / total count selection (DLG1 PDZ1): 0
Mean fraction #NGS counts mimetic peptide / total count selection (Scribble PDZ3; mean over selections 1-3): 0
Mean fraction #NGS counts mimetic peptide / total count selection (DLG1 PDZ2): 0

RSRSISEDV
Mean fraction #NGS counts mimetic peptide / total count selection (DLG1 PDZ1): 0
Mean fraction #NGS counts mimetic peptide / total count selection (Scribble PDZ3; mean over selections 1-3): 0
Mean fraction #NGS counts mimetic peptide / total count selection (Scribble PDZ1): 0
Mean fraction #NGS counts mimetic peptide / total count selection (DLG1 PDZ2): 3.877e-6

VRKLPETEL
Mean fraction #NGS counts mimetic peptide / total count selection (Scribble PDZ3; mean of selections 1-3, phosphomimetic peptide): 0.01059
Mean fraction #NGS counts mimetic peptide / total count selection (Scribble PDZ1): 4.38e-5

QKFRASTAL
Mean fraction #NGS counts wt peptide / total counts selection (Scribble PDZ3; mean over selections 1-3): 4.038e-6
Mean fraction #NGS counts wt peptide / total counts selection (Scribble PDZ1): 0

KLSSIESDV
Mean fraction #NGS counts wt peptide / total counts selection (DLG1 PDZ1): 2.936e-5
Mean fraction #NGS counts wt peptide / total counts selection (Scribble PDZ3; mean over selections 1-3): 0.0003618
Mean fraction #NGS counts wt peptide / total counts selection (DLG1 PDZ2): 0.003213

VVHEPETEV
Mean fraction #NGS counts mimetic peptide / total count selection (DLG1 PDZ1): 1.207e-5
Mean fraction #NGS counts mimetic peptide / total count selection (Scribble PDZ1): 4.939e-5

DKESFLTWL
Mean fraction #NGS counts wt peptide / total counts selection (Scribble PDZ3; mean over selections 1-3): 0.01024
Mean fraction #NGS counts wt peptide / total counts selection (Scribble PDZ1): 0.000274

VRKLPSTTL
Mean fraction #NGS counts wt peptide / total counts selection (Scribble PDZ3; [1]): 8.076e-6
Mean fraction #NGS counts wt peptide / total counts selection (Scribble PDZ3; mean over selections 1-3): 8.076e-6
Mean fraction #NGS counts wt peptide / total counts selection (Scribble PDZ1): 6.957e-5

SSGEQHTNV
Mean fraction #NGS counts mimetic peptide / total count selection (DLG1 PDZ1): 0
Mean fraction #NGS counts mimetic peptide / total count selection (DLG1 PDZ2): 5.744e-6

YPGEPDEWV
Mean fraction #NGS counts mimetic peptide / total count selection (DLG1 PDZ1): 0.01439
Mean fraction #NGS counts mimetic peptide / total count selection (DLG1 PDZ2): 0

ARVSKETPL
Mean fraction #NGS counts wt peptide / total counts selection (Scribble PDZ3; mean over selections 1-3): 0.1287
Mean fraction #NGS counts wt peptide / total counts selection (Scribble PDZ1): 0.07558
Mean fraction #NGS counts wt peptide / total counts selection (DLG1 PDZ2): 0.002959

KPSRISTVV
Mean fraction #NGS counts wt peptide / total counts selection (DLG1 PDZ1): 0
Mean fraction #NGS counts wt peptide / total counts selection (DLG1 PDZ2; wild type peptide): 2.5129e-5
